Experimental data reported in the kinase profiling compilation of Christmann-Franck et al. (2016).

What was measured:
Experiment in all cases: radiometric filter-binding kinase assay, Kinase HotSpot
Details in all cases: compound 0.5 µM; ATP 10 µM
CSK (human) = CSK (human) (UniProt P41240)
ACVR1B (human) = ACVR1B (human) (UniProt P36896)
MARK1 (human) = MARK1 (human) (UniProt Q9P0L2)
CSNK1G2 (human) = CSNK1G2 (human) (UniProt P78368)
CAMKK2 (human) = CAMKK2 (human) (UniProt Q96RR4)
RAF1 (human) = RAF1 (human) (UniProt P04049)
CLK3 (human) = CLK3 (human) (UniProt P49761)
Sequence of CLK3 (human) (P49761 whole entry, looked up): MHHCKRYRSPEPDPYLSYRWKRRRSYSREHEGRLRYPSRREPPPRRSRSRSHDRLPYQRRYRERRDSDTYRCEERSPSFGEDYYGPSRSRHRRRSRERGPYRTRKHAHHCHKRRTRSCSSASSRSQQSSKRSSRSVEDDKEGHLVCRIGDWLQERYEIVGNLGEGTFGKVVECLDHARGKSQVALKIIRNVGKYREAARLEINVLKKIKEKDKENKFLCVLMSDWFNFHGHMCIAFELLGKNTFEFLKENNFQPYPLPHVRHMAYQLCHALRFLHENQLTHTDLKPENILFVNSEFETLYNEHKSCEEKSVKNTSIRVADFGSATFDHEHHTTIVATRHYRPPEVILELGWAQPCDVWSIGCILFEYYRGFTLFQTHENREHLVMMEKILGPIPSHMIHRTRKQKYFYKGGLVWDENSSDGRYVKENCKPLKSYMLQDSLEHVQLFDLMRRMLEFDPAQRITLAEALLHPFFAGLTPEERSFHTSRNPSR

GRK5 (human) = GRK5 (human) (UniProt P34947)
TTK (human) = TTK (human) (UniProt P33981)
PRKACA (human) = PRKACA (human) (UniProt P17612)
SYK (human) = SYK (human) (UniProt P43405)
DYRK4 (human) = DYRK4 (human) (UniProt Q9NR20)
MLTK (human) = MLTK (human) (UniProt Q9NYL2)
DAPK3 (human) = DAPK3 (human) (UniProt O43293)
DYRK1A (human) = DYRK1A (human) (UniProt Q13627)
ROCK1 (human) = ROCK1 (human) (UniProt Q13464)
INSRR (human) = INSRR (human) (UniProt P14616)
PRKD1 (human) = PRKD1 (human) (UniProt Q15139)
Sequence of PRKD1 (human) (Q15139 whole entry, looked up): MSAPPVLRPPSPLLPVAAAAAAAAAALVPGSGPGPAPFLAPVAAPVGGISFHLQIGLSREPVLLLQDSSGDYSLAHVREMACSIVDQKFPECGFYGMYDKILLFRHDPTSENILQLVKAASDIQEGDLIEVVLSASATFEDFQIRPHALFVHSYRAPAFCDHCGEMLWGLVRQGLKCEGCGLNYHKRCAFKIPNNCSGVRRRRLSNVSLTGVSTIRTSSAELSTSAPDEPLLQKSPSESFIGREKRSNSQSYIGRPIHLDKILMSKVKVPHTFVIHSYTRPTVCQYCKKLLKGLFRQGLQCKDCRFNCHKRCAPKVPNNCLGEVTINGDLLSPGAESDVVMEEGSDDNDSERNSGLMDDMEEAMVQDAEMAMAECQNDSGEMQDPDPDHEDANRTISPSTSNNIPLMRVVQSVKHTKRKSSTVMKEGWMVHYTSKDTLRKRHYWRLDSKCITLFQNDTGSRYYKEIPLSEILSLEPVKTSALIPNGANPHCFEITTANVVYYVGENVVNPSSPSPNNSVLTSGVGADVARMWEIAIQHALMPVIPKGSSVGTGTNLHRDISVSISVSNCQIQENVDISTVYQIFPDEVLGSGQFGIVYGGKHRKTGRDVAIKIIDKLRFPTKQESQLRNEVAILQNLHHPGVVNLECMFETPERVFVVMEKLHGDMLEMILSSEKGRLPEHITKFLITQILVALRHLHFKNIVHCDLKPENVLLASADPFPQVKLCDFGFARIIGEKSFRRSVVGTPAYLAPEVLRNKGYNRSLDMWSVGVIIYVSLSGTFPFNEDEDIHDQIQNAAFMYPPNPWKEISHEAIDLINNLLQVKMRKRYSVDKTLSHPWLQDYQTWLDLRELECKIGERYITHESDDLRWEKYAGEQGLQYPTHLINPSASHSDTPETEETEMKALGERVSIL

LRRK2 (human) = LRRK2 (human) (UniProt Q5S007)
CDK5 CDK5R1 p35 (human) = CDK5 CDK5R1 p35 (human) (UniProt Q00535+Q15078)
AURKB (human) = AURKB (human) (UniProt Q96GD4)
FGFR4 (human) = FGFR4 (human) (UniProt P22455)
ITK (human) = ITK (human) (UniProt Q08881)
CDK9 CCNK (human) = CDK9 CCNK (human) (UniProt O75909+P50750)
Sequence of CDK9 CCNK (human) (O75909 whole entry, looked up): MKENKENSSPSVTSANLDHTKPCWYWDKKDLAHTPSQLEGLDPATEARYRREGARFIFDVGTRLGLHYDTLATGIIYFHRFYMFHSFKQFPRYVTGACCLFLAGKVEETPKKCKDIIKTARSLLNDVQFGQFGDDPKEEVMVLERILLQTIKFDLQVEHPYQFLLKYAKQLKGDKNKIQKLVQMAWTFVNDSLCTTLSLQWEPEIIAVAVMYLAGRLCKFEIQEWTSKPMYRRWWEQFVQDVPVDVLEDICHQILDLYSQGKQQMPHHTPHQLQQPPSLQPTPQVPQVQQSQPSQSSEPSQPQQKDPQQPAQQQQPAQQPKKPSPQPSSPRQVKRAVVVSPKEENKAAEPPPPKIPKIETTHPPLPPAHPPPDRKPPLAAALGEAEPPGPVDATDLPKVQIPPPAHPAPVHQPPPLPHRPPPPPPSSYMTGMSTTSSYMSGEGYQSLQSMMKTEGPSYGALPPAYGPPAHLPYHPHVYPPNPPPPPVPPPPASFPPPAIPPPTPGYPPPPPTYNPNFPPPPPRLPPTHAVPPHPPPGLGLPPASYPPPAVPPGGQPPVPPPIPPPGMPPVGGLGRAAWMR
Sequence of CDK9 CCNK (human) (P50750 whole entry, looked up): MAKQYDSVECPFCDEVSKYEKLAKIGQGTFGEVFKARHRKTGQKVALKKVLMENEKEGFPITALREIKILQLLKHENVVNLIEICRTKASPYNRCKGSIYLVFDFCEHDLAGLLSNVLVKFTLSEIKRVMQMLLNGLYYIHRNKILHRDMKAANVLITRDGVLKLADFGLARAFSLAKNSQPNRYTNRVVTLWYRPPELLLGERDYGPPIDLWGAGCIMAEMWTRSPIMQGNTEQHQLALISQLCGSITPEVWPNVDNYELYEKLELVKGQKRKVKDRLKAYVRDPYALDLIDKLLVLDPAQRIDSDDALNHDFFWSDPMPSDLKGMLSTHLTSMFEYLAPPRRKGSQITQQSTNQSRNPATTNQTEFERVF

MST4 (human) = MST4 (human) (UniProt Q9P289)
CDK6 CCND3 (human) = CDK6 CCND3 (human) (UniProt P30281+Q00534)
SRMS (human) = SRMS (human) (UniProt Q9H3Y6)
HCK (human) = HCK (human) (UniProt P08631)
STK11 (human) = STK11 (human) (UniProt Q15831)
[1] = target: JAK1 JH1 catalytic (human) (UniProt P23458)
PTK2B (human) = PTK2B (human) (UniProt Q14289)
TAOK3 (human) = TAOK3 (human) (UniProt Q9H2K8)
MAP3K9 (human) = MAP3K9 (human) (UniProt P80192)
SRPK2 (human) = SRPK2 (human) (UniProt P78362)
PHKG1 (human) = PHKG1 (human) (UniProt Q16816)
DSTYK (human) = DSTYK (human) (UniProt Q6XUX3)
PKN2 (human) = PKN2 (human) (UniProt Q16513)
STK39 (human) = STK39 (human) (UniProt Q9UEW8)
CSNK2A1 (human) = CSNK2A1 (human) (UniProt P68400)
DYRK3 (human) = DYRK3 (human) (UniProt O43781)
Sequence of DYRK3 (human) (O43781 whole entry, looked up): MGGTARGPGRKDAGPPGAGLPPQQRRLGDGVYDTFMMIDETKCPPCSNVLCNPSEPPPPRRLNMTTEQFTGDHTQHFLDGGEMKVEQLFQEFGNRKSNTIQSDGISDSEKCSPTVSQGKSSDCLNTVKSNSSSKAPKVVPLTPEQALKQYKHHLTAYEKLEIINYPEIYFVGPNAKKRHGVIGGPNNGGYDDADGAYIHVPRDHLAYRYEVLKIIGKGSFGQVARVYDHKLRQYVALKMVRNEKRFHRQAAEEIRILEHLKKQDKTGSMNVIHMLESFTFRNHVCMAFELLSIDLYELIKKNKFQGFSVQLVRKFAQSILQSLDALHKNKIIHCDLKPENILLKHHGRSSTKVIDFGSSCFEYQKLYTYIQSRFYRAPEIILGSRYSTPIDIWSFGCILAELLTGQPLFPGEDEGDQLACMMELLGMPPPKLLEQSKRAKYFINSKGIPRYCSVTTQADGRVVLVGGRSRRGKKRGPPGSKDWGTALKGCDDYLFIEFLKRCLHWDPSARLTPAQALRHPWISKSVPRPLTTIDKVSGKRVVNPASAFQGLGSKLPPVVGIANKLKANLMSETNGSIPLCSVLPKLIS

CHUK (human) = CHUK (human) (UniProt O15111)
PRKD2 (human) = PRKD2 (human) (UniProt Q9BZL6)

Sequence of CSK (human) (P41240 whole entry, looked up): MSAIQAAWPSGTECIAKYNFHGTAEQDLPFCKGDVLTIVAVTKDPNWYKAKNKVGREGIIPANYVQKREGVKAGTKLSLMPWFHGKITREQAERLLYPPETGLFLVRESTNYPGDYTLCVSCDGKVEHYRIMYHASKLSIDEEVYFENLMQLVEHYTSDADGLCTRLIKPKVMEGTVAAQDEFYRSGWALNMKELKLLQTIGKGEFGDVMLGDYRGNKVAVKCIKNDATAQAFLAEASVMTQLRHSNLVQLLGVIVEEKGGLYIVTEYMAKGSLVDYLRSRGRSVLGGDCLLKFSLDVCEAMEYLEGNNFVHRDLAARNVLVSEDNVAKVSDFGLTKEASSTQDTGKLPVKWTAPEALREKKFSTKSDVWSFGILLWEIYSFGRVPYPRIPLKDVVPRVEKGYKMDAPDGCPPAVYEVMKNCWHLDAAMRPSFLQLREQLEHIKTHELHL
Sequence of CAMKK2 (human) (Q96RR4 whole entry, looked up): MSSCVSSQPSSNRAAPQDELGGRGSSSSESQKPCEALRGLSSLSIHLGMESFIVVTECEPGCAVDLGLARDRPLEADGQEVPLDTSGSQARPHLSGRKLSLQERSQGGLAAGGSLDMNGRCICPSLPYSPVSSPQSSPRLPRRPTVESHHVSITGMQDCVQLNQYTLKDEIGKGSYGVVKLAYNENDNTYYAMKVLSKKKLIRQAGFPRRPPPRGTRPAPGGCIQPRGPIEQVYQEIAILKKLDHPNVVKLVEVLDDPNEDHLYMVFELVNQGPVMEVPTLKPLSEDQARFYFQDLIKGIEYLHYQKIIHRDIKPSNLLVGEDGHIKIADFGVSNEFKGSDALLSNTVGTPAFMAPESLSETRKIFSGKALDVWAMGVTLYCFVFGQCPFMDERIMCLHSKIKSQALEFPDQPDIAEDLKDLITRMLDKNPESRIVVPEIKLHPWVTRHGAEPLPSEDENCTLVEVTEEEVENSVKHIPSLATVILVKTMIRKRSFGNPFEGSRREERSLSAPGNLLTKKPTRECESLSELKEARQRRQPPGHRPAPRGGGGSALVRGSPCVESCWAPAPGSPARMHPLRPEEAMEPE
Sequence of MARK1 (human) (Q9P0L2 whole entry, looked up): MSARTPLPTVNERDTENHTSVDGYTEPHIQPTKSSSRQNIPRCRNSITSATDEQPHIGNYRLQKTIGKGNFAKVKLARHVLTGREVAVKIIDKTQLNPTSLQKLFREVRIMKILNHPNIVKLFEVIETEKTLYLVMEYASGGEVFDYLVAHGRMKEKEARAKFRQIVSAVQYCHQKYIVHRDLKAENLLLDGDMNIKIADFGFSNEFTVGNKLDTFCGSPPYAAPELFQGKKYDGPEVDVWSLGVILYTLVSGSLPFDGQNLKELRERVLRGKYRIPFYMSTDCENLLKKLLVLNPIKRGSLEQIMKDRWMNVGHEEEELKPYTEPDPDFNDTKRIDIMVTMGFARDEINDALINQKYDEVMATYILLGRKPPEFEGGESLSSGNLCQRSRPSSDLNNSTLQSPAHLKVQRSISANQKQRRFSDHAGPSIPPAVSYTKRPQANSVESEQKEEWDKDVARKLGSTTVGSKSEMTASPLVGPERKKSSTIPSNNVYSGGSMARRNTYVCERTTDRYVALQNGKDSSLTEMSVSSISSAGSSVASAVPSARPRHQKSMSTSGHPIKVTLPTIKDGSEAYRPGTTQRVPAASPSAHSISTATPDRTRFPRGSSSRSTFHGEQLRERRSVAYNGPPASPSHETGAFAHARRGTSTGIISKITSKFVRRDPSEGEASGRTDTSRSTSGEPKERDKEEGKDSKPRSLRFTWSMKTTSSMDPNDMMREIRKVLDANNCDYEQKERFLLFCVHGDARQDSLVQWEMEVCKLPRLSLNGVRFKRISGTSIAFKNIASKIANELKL

COc1cc2ncnc(Nc3ccc(F)c(Cl)c3)c2cc1OCCCN1CCOCC1
residual activity (CSK (human)): 95.4% | residual activity (ACVR1B (human)): 99.6% | residual activity (MARK1 (human)): 116% | residual activity (CSNK1G2 (human)): 98.1% | residual activity (CAMKK2 (human)): 103% | residual activity (RAF1 (human)): 90.9% | residual activity (CLK3 (human)): 106% | residual activity (GRK5 (human)): 94.9% | residual activity (TTK (human)): 96.3% | residual activity (PRKACA (human)): 96.3% | residual activity (SYK (human)): 104% | residual activity (DYRK4 (human)): 105% | residual activity (MLTK (human)): 96.2% | residual activity (DAPK3 (human)): 95.7% | residual activity (DYRK1A (human)): 101% | residual activity (ROCK1 (human)): 106% | residual activity (INSRR (human)): 112% | residual activity (PRKD1 (human)): 85.4% | residual activity (LRRK2 (human)): 108% | residual activity (CDK5 CDK5R1 p35 (human)): 103% | residual activity (AURKB (human)): 106% | residual activity (FGFR4 (human)): 92.4% | residual activity (ITK (human)): 99.9% | residual activity (CDK9 CCNK (human)): 99.3% | residual activity (MST4 (human)): 106% | residual activity (CDK6 CCND3 (human)): 118% | residual activity (SRMS (human)): 96.4% | residual activity (HCK (human)): 73.3% | residual activity (STK11 (human)): 106% | residual activity [1]: 102% | residual activity (PTK2B (human)): 98.9% | residual activity (TAOK3 (human)): 99.5% | residual activity (MAP3K9 (human)): 110% | residual activity (SRPK2 (human)): 99.5% | residual activity (PHKG1 (human)): 68.8% | residual activity (DSTYK (human)): 101% | residual activity (PKN2 (human)): 93.1% | residual activity (STK39 (human)): 93.5% | residual activity (CSNK2A1 (human)): 114% | residual activity (DYRK3 (human)): 85% | residual activity (CHUK (human)): 94.9%

CC(C)[C@H](CO)Nc1nc(Nc2cccc(Cl)c2)c2ncn(C(C)C)c2n1
residual activity (CSK (human)): 98.1% | residual activity (ACVR1B (human)): 99.8% | residual activity (MARK1 (human)): 94.5% | residual activity (CSNK1G2 (human)): 32.4% | residual activity (CAMKK2 (human)): 70.9% | residual activity (RAF1 (human)): 98.9% | residual activity (CLK3 (human)): 89.7% | residual activity (GRK5 (human)): 101% | residual activity (TTK (human)): 116% | residual activity (PRKACA (human)): 102% | residual activity (SYK (human)): 88.9% | residual activity (DYRK4 (human)): 91.2% | residual activity (MLTK (human)): 108% | residual activity (DAPK3 (human)): 104% | residual activity (DYRK1A (human)): 65.4% | residual activity (ROCK1 (human)): 100% | residual activity (INSRR (human)): 88.2% | residual activity (PRKD1 (human)): 96.9% | residual activity (LRRK2 (human)): 77.7% | residual activity (CDK5 CDK5R1 p35 (human)): 2.61% | residual activity (AURKB (human)): 97% | residual activity (FGFR4 (human)): 79% | residual activity (ITK (human)): 86.9% | residual activity (CDK9 CCNK (human)): 63.6% | residual activity (MST4 (human)): 100% | residual activity (CDK6 CCND3 (human)): 71% | residual activity (SRMS (human)): 104% | residual activity (HCK (human)): 55.6% | residual activity (STK11 (human)): 84.4% | residual activity [1]: 108% | residual activity (PTK2B (human)): 66.5% | residual activity (TAOK3 (human)): 91.1% | residual activity (MAP3K9 (human)): 37.8% | residual activity (PRKD2 (human)): 99.7% | residual activity (SRPK2 (human)): 53.6% | residual activity (PHKG1 (human)): 89.9% | residual activity (DSTYK (human)): 105% | residual activity (STK39 (human)): 99.2% | residual activity (CSNK2A1 (human)): 101% | residual activity (DYRK3 (human)): 105% | residual activity (CHUK (human)): 106%

Nc1nc(Nc2ccc(S(N)(=O)=O)cc2)nn1C(=O)c1c(F)cccc1F
residual activity (CSK (human)): 88.9% | residual activity (ACVR1B (human)): 118% | residual activity (MARK1 (human)): 64.1% | residual activity (CAMKK2 (human)): 61.5% | residual activity (RAF1 (human)): 95.7% | residual activity (CLK3 (human)): 65.8% | residual activity (GRK5 (human)): 85.9% | residual activity (TTK (human)): 77.5% | residual activity (PRKACA (human)): 98.8% | residual activity (SYK (human)): 61.6% | residual activity (DYRK4 (human)): 105% | residual activity (MLTK (human)): 100% | residual activity (DAPK3 (human)): 99.4% | residual activity (DYRK1A (human)): 101% | residual activity (ROCK1 (human)): 42.6% | residual activity (INSRR (human)): 93.8% | residual activity (PRKD1 (human)): 66.5% | residual activity (LRRK2 (human)): 48.3% | residual activity (CDK5 CDK5R1 p35 (human)): 0.212% | residual activity (FGFR4 (human)): 90.3% | residual activity (ITK (human)): 105% | residual activity (CDK9 CCNK (human)): 27.4% | residual activity (MST4 (human)): 64.2% | residual activity (CDK6 CCND3 (human)): 36.3% | residual activity (SRMS (human)): 96.5% | residual activity (HCK (human)): 86.2% | residual activity (STK11 (human)): 85.8% | residual activity [1]: 5.19% | residual activity (PTK2B (human)): 79.7% | residual activity (TAOK3 (human)): 39.9% | residual activity (MAP3K9 (human)): 25.6% | residual activity (PRKD2 (human)): 86% | residual activity (SRPK2 (human)): 54.9% | residual activity (PHKG1 (human)): 102% | residual activity (DSTYK (human)): 86.2% | residual activity (PKN2 (human)): 85.6% | residual activity (STK39 (human)): 89.5% | residual activity (CSNK2A1 (human)): 104% | residual activity (DYRK3 (human)): 101% | residual activity (CHUK (human)): 99%

CS(=O)c1ccc(-c2nc(-c3ccc(F)cc3)c(-c3ccncc3)[nH]2)cc1 (stereo unspecified)
residual activity (CSK (human)): 87.7% | residual activity (ACVR1B (human)): 127% | residual activity (MARK1 (human)): 105% | residual activity (CSNK1G2 (human)): 95.7% | residual activity (CAMKK2 (human)): 110% | residual activity (RAF1 (human)): 41.1% | residual activity (CLK3 (human)): 99.1% | residual activity (GRK5 (human)): 104% | residual activity (TTK (human)): 99.9% | residual activity (PRKACA (human)): 98.9% | residual activity (SYK (human)): 98% | residual activity (DYRK4 (human)): 99.2% | residual activity (MLTK (human)): 100% | residual activity (DAPK3 (human)): 95.5% | residual activity (DYRK1A (human)): 95.6% | residual activity (ROCK1 (human)): 102% | residual activity (INSRR (human)): 100% | residual activity (LRRK2 (human)): 100% | residual activity (CDK5 CDK5R1 p35 (human)): 97.3% | residual activity (AURKB (human)): 87.7% | residual activity (FGFR4 (human)): 73.8% | residual activity (ITK (human)): 97% | residual activity (CDK9 CCNK (human)): 98.6% | residual activity (MST4 (human)): 96.8% | residual activity (CDK6 CCND3 (human)): 94.6% | residual activity (SRMS (human)): 102% | residual activity (HCK (human)): 96.1% | residual activity (STK11 (human)): 81.6% | residual activity [1]: 105% | residual activity (PTK2B (human)): 92.5% | residual activity (TAOK3 (human)): 103% | residual activity (MAP3K9 (human)): 95% | residual activity (SRPK2 (human)): 102% | residual activity (PHKG1 (human)): 94.1% | residual activity (DSTYK (human)): 100% | residual activity (STK39 (human)): 93.9% | residual activity (CSNK2A1 (human)): 86.2% | residual activity (DYRK3 (human)): 99% | residual activity (CHUK (human)): 100%

C#Cc1cccc(Nc2ncnc3cc(OCCOC)c(OCCOC)cc23)c1
residual activity (CSK (human)): 100% | residual activity (ACVR1B (human)): 101% | residual activity (MARK1 (human)): 130% | residual activity (CSNK1G2 (human)): 98.3% | residual activity (CAMKK2 (human)): 97.1% | residual activity (RAF1 (human)): 93.7% | residual activity (CLK3 (human)): 108% | residual activity (GRK5 (human)): 100% | residual activity (TTK (human)): 91.8% | residual activity (PRKACA (human)): 93.4% | residual activity (DYRK4 (human)): 101% | residual activity (MLTK (human)): 92.2% | residual activity (DAPK3 (human)): 95.4% | residual activity (ROCK1 (human)): 107% | residual activity (INSRR (human)): 111% | residual activity (PRKD1 (human)): 94.8% | residual activity (CDK5 CDK5R1 p35 (human)): 108% | residual activity (FGFR4 (human)): 93.3% | residual activity (ITK (human)): 106% | residual activity (CDK9 CCNK (human)): 102% | residual activity (MST4 (human)): 106% | residual activity (CDK6 CCND3 (human)): 117% | residual activity (SRMS (human)): 93.2% | residual activity [1]: 91.2% | residual activity (PTK2B (human)): 97.6% | residual activity (TAOK3 (human)): 106% | residual activity (MAP3K9 (human)): 111% | residual activity (PRKD2 (human)): 85.9% | residual activity (SRPK2 (human)): 101% | residual activity (PHKG1 (human)): 93.2% | residual activity (DSTYK (human)): 107% | residual activity (STK39 (human)): 97% | residual activity (CSNK2A1 (human)): 78.9% | residual activity (DYRK3 (human)): 83.5% | residual activity (CHUK (human)): 94.2%
